Reference: ChEMBL document CHEMBL2010747, “Synthesis of [12]aneN3-dipeptide conjugates as metal-free DNA nucleases” (Bioorg Med Chem Lett, 2012)
Activity calls are given as the source filed them. The rule behind the calls is not given here. Peptide text beside a SMILES is read from it. * marks the point of attachment. Fmoc = O=C(OCC1c2ccccc2-c2ccccc21)*

Assays:
Type in all cases: nucleic-acid assay
Nucleic Acid [1] = test: Displacement of ethidium bromide from calf thymus DNA after 1 min by fluorimetry; conditions: Bos taurus
Nucleic Acid [2] = test: Induction of Escherichia coli pUC18 DNA cleavage assessed as formation of open circular DNA at 200 uM after 48 hrs by agarose gel electrophoresis
Nucleic Acid [3] = test: Induction of Escherichia coli pUC18 DNA cleavage assessed as formation of linear DNA at 50 to 500 uM after 48 hrs by agarose gel electrophoresis
Nucleic Acid [4] = test: Induction of Escherichia coli pUC18 DNA cleavage assessed as formation of open circular DNA at 200 uM from 6 to 48 hrs by agarose gel electrophoresis
Nucleic Acid [5] = test: Induction of Escherichia coli pUC18 DNA cleavage assessed as formation of open circular DNA at 200 uM after 48 hrs by agarose gel electrophoresis in presence of EDTA
Nucleic Acid [6] = test: Induction of Escherichia coli pUC18 DNA cleavage assessed as formation of open circular DNA at 200 uM after 48 hrs by agarose gel electrophoresis in presence of hydroxyl radical scavenger DMSO
Nucleic Acid [7] = test: Induction of Escherichia coli pUC18 DNA cleavage assessed as formation of open circular DNA at 200 uM after 48 hrs by agarose gel electrophoresis in presence of hydroxyl radical scavenger t-BuOH
Nucleic Acid [8] = test: Induction of Escherichia coli pUC18 DNA cleavage assessed as formation of open circular DNA at 200 uM after 48 hrs by agarose gel electrophoresis in presence of singlet oxygen radical scavenger NaN3
Nucleic Acid [9] = test: Induction of Escherichia coli pUC18 DNA cleavage assessed as formation of open circular DNA at 200 uM after 48 hrs by agarose gel electrophoresis in presence of […]
Nucleic Acid [10] = test: Induction of Escherichia coli pUC18 DNA cleavage assessed as formation of linear DNA at 200 uM after 48 hrs by agarose gel electrophoresis

| Kapp (Nucleic Acid [1]) | Activity (Nucleic Acid [2]) | SMILES | also measured |
| --- | --- | --- | --- |
| 6.6 ×10⁴ /M | 50% | COC(=O)[C@H](Cc1ccccc1)NC(=O)[C@H](CC(C)C)NC(=O)CN1CCCNCCCNCCC1 |  |
|  | inactive | COC(=O)[C@H](Cc1ccccc1)NC(=O)[C@@H](N)CC(C)C (H-Leu-Phe-OMe) |  |
| 7.1 ×10⁴ /M | 50% | COC(=O)[C@H](CCCCN)NC(=O)[C@H](CC(C)C)NC(=O)CN1CCCNCCCNCCC1 | Activity (Nucleic Acid [3]): Active; Activity (Nucleic Acid [4]): Active; Activity (Nucleic Acid [5]): Active; Activity (Nucleic Acid [6]): Active; Activity (Nucleic Acid [7]): Active; Activity (Nucleic Acid [8]): Active; Activity (Nucleic Acid [9]): Active |
| 4.7 ×10⁴ /M | 50% | COC(=O)[C@H](Cc1c[nH]c2ccccc12)NC(=O)[C@H](CC(C)C)NC(=O)CN1CCCNCCCNCCC1 |  |
|  | inactive | COC(=O)CNC(=O)CN |  |
| 4.2 ×10⁴ /M | 50% | COC(=O)CNC(=O)CNC(=O)CN1CCCNCCCNCCC1 |  |
|  | inactive | COC(=O)[C@H](C)NC(=O)[C@@H](N)CC(C)C (H-Leu-Ala-OMe) |  |
|  | inactive | COC(=O)[C@H](Cc1ccc(O)cc1)NC(=O)[C@@H](N)CC(C)C (H-Leu-Tyr-OMe) |  |
| 6.4 ×10⁴ /M | 50% | COC(=O)[C@H](Cc1ccc(O)cc1)NC(=O)[C@H](CC(C)C)NC(=O)CN1CCCNCCCNCCC1 |  |
|  | inactive | COC(=O)[C@H](CO)NC(=O)[C@@H](N)CC(C)C (H-Leu-Ser-OMe) |  |
| 5.9 ×10⁴ /M | 50% | COC(=O)[C@H](C)NC(=O)[C@H](CC(C)C)NC(=O)CN1CCCNCCCNCCC1 | Activity (Nucleic Acid [10]): inactive; Activity (Nucleic Acid [3]): Active; Activity (Nucleic Acid [4]): Active; Activity (Nucleic Acid [5]): Active; Activity (Nucleic Acid [6]): Active; Activity (Nucleic Acid [7]): Active; Activity (Nucleic Acid [8]): Active; Activity (Nucleic Acid [9]): Active |
| 7.2 ×10⁴ /M | 50% | COC(=O)[C@H](CO)NC(=O)[C@H](CC(C)C)NC(=O)CN1CCCNCCCNCCC1 |  |
|  | inactive | COC(=O)CNC(=O)[C@@H](N)CC(C)C (H-Leu-Gly-OMe) |  |
| 4 ×10⁴ /M | 50% | COC(=O)CNC(=O)[C@H](CC(C)C)NC(=O)CN1CCCNCCCNCCC1 |  |
|  | inactive | COC(=O)[C@H](CCCCNC(=O)OCC1c2ccccc2-c2ccccc21)NC(=O)[C@@H](N)CC(C)C (H-Leu-Lys(Fmoc)-OMe) |  |
|  | inactive | COC(=O)[C@H](Cc1c[nH]c2ccccc12)NC(=O)[C@@H](N)CC(C)C |  |
